Data reported in patent publication US9409952B2, “Peptide-compound cyclization method” (Chugai Seiyaku Kabushiki Kaisha, priority 2011, dated 2016).
Where two headings read alike, the source gives them in different places. Starred links: 1 amine or outer side, 2 acyl side, 3 side chain; linkers in the order of their positions; H or OH if unused. Positions of bridges follow the written chain, without caps; N, C: chain ends. Non-standard residues stand in square brackets, D forms with d. Residues, ends and D or L forms follow the SMILES beside them. *: point of attachment. Phe(4-(CH2)5CO) = O=C([C@H](Cc1ccc(CCCCCC(=O)[*:3])cc1)N[*:1])[*:2]; Tyr(3-F) = N[C@@H](Cc1ccc(O)c(F)c1)C(=O)O; NMeF = CN[C@@H](Cc1ccccc1)C(=O)O; NMeI = CC[C@H](C)[C@H](NC)C(=O)O; AllylGly = C=CC[C@H](N)C(=O)O; NMeL = CN[C@@H](CC(C)C)C(=O)O; NMeV = CN[C@H](C(=O)O)C(C)C; Pip = O=C(O)[C@@H]1CCCCN1; NMeA = CN[C@@H](C)C(=O)O; Piperidide = C1CCN(*)CC1; dNMeA = CN[C@H](C)C(=O)O; Aze = O=C(O)[C@@H]1CCN1; Sar = CNCC(=O)O; tBu = CC(C)(C)*

Test: Metabolic stability in human hepatic microsome
Format: in vitro ADME
Settings: for microsomal CLint at 1 uM: microsomes
[1] = pH 7.4, human hepatic microsome, NADPH(+), read-out: CL NADPH(+)

| Structure (SMILES) | microsomal CLint at 1 uM [1] [µL/min/mg] | other results |
| --- | --- | --- |
| C=C1CCC(=O)N[C@@H](C(C)C)C(=O)N(C)[C@@H](CC(C)C)C(=O)N(C)CC(=O)N(C)[C@@H](CC(C)C)C(=O)N(C)[C@@H]([C@@H](C)CC)C(=O)N[C@@H](C)C(=O)N(C)[C@@H](Cc2ccccc2)C(=O)N(C)[C@@H](Cc2ccccc2)C(=O)N[C@@H]([C@@H](C)O)C(=O)N(C)[C@@H](CC(C)C)C(=O)N2CCC[C@H]2C(=O)N[C@H](C(=O)N2CCCCC2)Cc2cccc1c2 [DP-899] | 32 |  |
| CC(C)C[C@@H]1NC(=O)[C@H](CC(C)C)NC(=O)[C@H](C)N(C)C(=O)C[C@@H](C(=O)N2CCCCC2)NC(=O)[C@H](C(C)C)N(C)C(=O)[C@H](CC(C)C)NC(=O)[C@H](Cc2ccccc2)NC(=O)[C@H]([C@@H](C)O)NC(=O)[C@@H]2CCN2C(=O)[C@H](CC(C)C)NC(=O)[C@H](C)NC1=O [DP-548] ([NMeA]LLAL[Aze]TFL[NMeV]D-Piperidide; lactam N-11) | 16 |  |
| CC[C@H](C)[C@@H]1NC(=O)[C@H](C(C)C)N(C)C(=O)[C@H](C)N(C)C(=O)C[C@@H](C(=O)N2CCCCC2)NC(=O)[C@H](CC(C)C)NC(=O)[C@H](Cc2ccccc2)N(C)C(=O)[C@H](CC(C)C)N(C)C(=O)[C@H](CC(C)C)NC(=O)[C@H]([C@@H](C)O)NC(=O)[C@H](Cc2ccccc2)NC1=O [DP-488] ([NMeA][NMeV]IFTL[NMeL][NMeF]LD-Piperidide; lactam N-10) | 261 |  |
| CC[C@H](C)[C@H](NC(=O)[C@H](CC(C)C)N(C)C(=O)[C@@H](NC(=O)[C@@H]1CC(=O)N[C@@H](C)C(=O)N[C@@H](CC(C)C)C(=O)N[C@@H]([C@@H](C)O)C(=O)N(C)[C@@H](Cc2ccccc2)C(=O)N[C@@H](Cc2ccccc2)C(=O)N(C)[C@@H](C)C(=O)N1)C(C)C)C(=O)N1CCCCC1 [DP-46] (ALT[NMeF]F[NMeA]DV[NMeL]I-Piperidide; lactam N-7) |  | microsomal CLint at 1 uM (human, pH 7.4, CL NADPH(+)): 249 µL/min/mg |
| CC(C)C[C@@H]1NC(=O)[C@H](CC(C)C)N(C)C(=O)[C@H](CC(C)C)N(C)C(=O)CNC(=O)[C@H](Cc2ccccc2)N(C)C(=O)[C@H]([C@@H](C)O)NC(=O)[C@H](CC(C)C)N(C)C(=O)[C@H](Cc2ccc(O)c(F)c2)NC(=O)[C@H](C)NC(=O)C[C@@H](C(=O)N(C)[C@@H](Cc2ccccc2)C(=O)N[C@@H](C)C(=O)N2CCCCC2)NC1=O [DP-605] (A[Tyr(3-F)][NMeL]T[NMeF]G[NMeL][NMeL]LD[NMeF]A-Piperidide; lactam N-10) | 30 |  |
| CC(C)C[C@@H]1NC(=O)C[C@@H](C(=O)N2CCCCC2)NC(=O)[C@H]([C@@H](C)O)NC(=O)[C@H](C(C)C)N(C)C(=O)CN(C)C(=O)[C@H](CC(C)C)N(C)C(=O)[C@H](Cc2ccccc2)NC(=O)[C@H](Cc2ccccc2)N(C)C(=O)[C@@H](C(C)C)NC(=O)[C@H](CC(C)C)N(C)C(=O)[C@H](C)N(C)C1=O [DP-615] (L[NMeA][NMeL][dV][NMeF]F[NMeL][Sar][NMeV]TD-Piperidide; lactam N-11) | 42 |  |
| CC(C)C[C@@H]1NC(=O)CN(C)C(=O)[C@H](C)NC(=O)[C@H]([C@@H](C)O)NC(=O)[C@@H](C)N(C)C(=O)C[C@@H](C(=O)N2CCCCC2)NC(=O)[C@H](CC(C)C)N(C)C(=O)[C@H](CC(C)C)NC(=O)[C@H](C(C)C)N(C)C(=O)[C@H](CC(C)C)NC(=O)[C@H](Cc2ccccc2)NC1=O [DP-328] ([dNMeA]TA[Sar]LFL[NMeV]L[NMeL]D-Piperidide; lactam N-11) | 32 |  |
| CC[C@H](C)[C@@H]1NC(=O)[C@H](C)N(C)C(=O)CN(C)C(=O)C[C@@H](C(=O)N2CCCCC2)NC(=O)[C@H](CC(C)C)N(C)C(=O)[C@H](C)N(C)C(=O)[C@H](Cc2ccccc2)N(C)C(=O)[C@H]([C@@H](C)O)NC(=O)[C@H](Cc2ccccc2)N(C)C(=O)[C@H](CC(C)C)N(C)C1=O [DP-519] ([Sar][NMeA]I[NMeL][NMeF]T[NMeF][NMeA][NMeL]D-Piperidide; lactam N-10) | 157 |  |
| CC(C)C[C@@H]1NC(=O)[C@H](CC(C)C)N(C)C(=O)[C@H](Cc2ccccc2)NC(=O)[C@H](C)N(C)C(=O)C[C@@H](C(=O)N2CCCCC2)NC(=O)[C@H](Cc2ccccc2)NC(=O)[C@@H]2CCCN2C(=O)[C@H]([C@@H](C)O)NC(=O)[C@H](CC(C)C)N(C)C(=O)CNC(=O)[C@@H]2CCCCN2C1=O [DP-555] ([NMeA]F[NMeL]L[Pip]G[NMeL]TPFD-Piperidide; lactam N-11) | 95 |  |
| CC[C@H](C)[C@@H]1NC(=O)[C@H](C)N(C)C(=O)CCCCCc2ccc(cc2)C[C@@H](C(=O)N2CCCCC2)NC(=O)[C@H](CC(C)C)N(C)C(=O)[C@H](CC(C)C)N(C)C(=O)[C@H](C)N(C)C(=O)[C@H]([C@@H](C)O)NC(=O)[C@H](Cc2ccccc2)N(C)C(=O)[C@H](Cc2ccccc2)N(C)C1=O [DP-841] ([NMeA]I[NMeF][NMeF]T[NMeA][NMeL][NMeL][Phe(4-(CH2)5CO)]-Piperidide; lactam N-9) | 386 |  |
| C=C1CCC(=O)N[C@@H](CC(C)C)C(=O)N(C)[C@@H](CC(C)C)C(=O)N(C)[C@@H](Cc2ccccc2)C(=O)N[C@@H](C)C(=O)N(C)[C@@H](Cc2ccccc2)C(=O)N(C)[C@@H]([C@@H](C)CC)C(=O)N[C@@H]([C@@H](C)O)C(=O)N(C)CC(=O)N(C)[C@@H](CC(C)C)C(=O)N[C@H](C(=O)N2CCCCC2)Cc2cccc1c2 [DP-855] | 210 |  |
| CC[C@H](C)[C@H]1C(=O)N(C)[C@@H](CC(C)C)C(=O)NCC(=O)N(C)[C@@H](C)C(=O)N[C@@H](Cc2ccccc2)C(=O)N[C@@H]([C@@H](C)O)C(=O)N(C)[C@@H](CC(C)C)C(=O)N[C@@H](Cc2ccccc2)C(=O)N(C)[C@@H](C(C)C)C(=O)N[C@H](C(=O)N2CCCCC2)CC(=O)N[C@@H](C)C(=O)N[C@@H](CC(C)C)C(=O)N1C [DP-8] (AL[NMeI][NMeL]G[NMeA]FT[NMeL]F[NMeV]D-Piperidide; lactam N-12) |  | microsomal CLint at 1 uM (human, pH 7.4, CL NADPH(+)): 36 µL/min/mg |
| CC[C@H](C)[C@@H]1NC(=O)[C@H](Cc2ccccc2)N(C)C(=O)[C@H](Cc2ccccc2)NC(=O)[C@H](CC(C)C)N(C)C(=O)[C@H](C(C)C)NC(=O)[C@H](CC(C)C)NC(=O)[C@H](C)N(C)C(=O)CNC(=O)CCCCCc2ccc(cc2)C[C@@H](C(=O)N2CCCCC2)NC(=O)[C@H]([C@@H](C)O)NC(=O)[C@H](CC(C)C)NC(=O)[C@H](C)N(C)C1=O [DP-891] (G[NMeA]LV[NMeL]F[NMeF]I[NMeA]LT[Phe(4-(CH2)5CO)]-Piperidide; lactam N-12) | 100 |  |
| CC[C@H](C)[C@@H]1NC(=O)[C@H](C)NC(=O)C[C@@H](C(=O)N2CCCCC2)NC(=O)[C@H](Cc2ccccc2)NC(=O)[C@H](C)NC(=O)[C@H]([C@@H](C)O)NC(=O)[C@H](Cc2ccccc2)NC(=O)[C@H](CC(C)C)N(C)C(=O)[C@H](CC(C)C)NC(=O)[C@H](Cc2ccccc2)NC(=O)[C@H](CC(C)C)NC1=O [DP-320] (AILFL[NMeL]FTAFD-Piperidide; lactam N-11) | 36 |  |
| CC[C@H](C)[C@H](NC(=O)[C@H](CC(C)C)N(C)C(=O)[C@@H]1CC(=O)N[C@@H](C)C(=O)N[C@@H](Cc2ccccc2)C(=O)N2CCC[C@H]2C(=O)N[C@@H](CC(C)C)C(=O)N[C@@H]([C@@H](C)O)C(=O)N[C@@H](CC(C)C)C(=O)N[C@@H](Cc2ccccc2)C(=O)N(C)[C@@H](C(C)C)C(=O)N[C@@H](C)C(=O)N1)C(=O)N1CCCCC1 [DP-43] (AFPLTLF[NMeV]AD[NMeL]I-Piperidide; lactam N-10) |  | microsomal CLint at 1 uM (human, pH 7.4, CL NADPH(+)): 44 µL/min/mg |
| C=C1CCC(=O)N(C)[C@@H](Cc2ccccc2)C(=O)N[C@@H](CC(C)C)C(=O)N(C)[C@@H](CC(C)C)C(=O)N[C@@H]([C@@H](C)O)C(=O)N(C)CC(=O)N(C)[C@@H]([C@@H](C)CC)C(=O)N[C@@H](COC(C)(C)C)C(=O)N(C)[C@@H](Cc2ccccc2)C(=O)N(C)[C@@H](C(C)C)C(=O)N[C@H](C(=O)N2CCCCC2)Cc2ccc1cc2 [DP-850] | 119 |  |
| CC(C)C[C@H]1C(=O)N[C@@H](COC(C)(C)C)C(=O)N[C@H](C(=O)N2CCCCC2)CC(=O)N[C@@H](C)C(=O)N(C)[C@@H](C)C(=O)N(C)[C@@H](Cc2ccccc2)C(=O)N(C)[C@@H](CC(C)C)C(=O)N[C@@H]([C@@H](C)O)C(=O)N(C)CC(=O)N1C [Compound P-119, Ala-MeAla-MePhe-MeLeu-Thr-MeGly-MeLeu-Ser(tBu)-Asp-piperidine] (A[NMeA][NMeF][NMeL]T[Sar][NMeL]S(tBu)D-Piperidide; lactam N-9) |  | Hepatic microsome CLhint (Human) In the absence of NADPH: 5 ul/min/mg Protein; microsomal CLint at 1 uM (human, pH 7.4, Hepatic microsome CLhint (Human) In the presence of NADPH): 56 µL/min/mg |
| CC(C)C[C@H]1C(=O)N(C)CC(=O)N(C)[C@@H](C)C(=O)N[C@@H]([C@@H](C)O)C(=O)N[C@H](C(=O)N2CCCCC2)CC(=O)N[C@H](C(C)C)C(=O)N(C)[C@@H](C)C(=O)N(C)[C@@H](CC(C)C)C(=O)N[C@@H](Cc2c[nH]c3ccccc23)C(=O)N(C)[C@@H](Cc2ccccc2)C(=O)N[C@@H](Cc2ccccc2)C(=O)N1C [DP-623] ([dV][NMeA][NMeL]W[NMeF]F[NMeL][Sar][NMeA]TD-Piperidide; lactam N-11) | 16 |  |
| CC[C@H](C)[C@@H]1NC(=O)[C@H](Cc2ccccc2)NC(=O)[C@H](C)NC(=O)C[C@@H](C(=O)N2CCCCC2)NC(=O)[C@H](CC(C)C)NC(=O)[C@H](CC(C)C)NC(=O)[C@H](C(C)C)NC(=O)[C@H](C)N(C)C(=O)[C@H](Cc2ccccc2)NC(=O)CNC(=O)[C@H]([C@@H](C)O)NC(=O)[C@H](CC(C)C)NC(=O)[C@@H]2CCCN2C1=O [DP-19] (AFIPLTGF[NMeA]VLLD-Piperidide; lactam N-13) |  | microsomal CLint at 1 uM (human, pH 7.4, CL NADPH(+)): 80 µL/min/mg |
| CC[C@H](C)[C@@H]1NC(=O)[C@H](Cc2ccccc2)N(C)C(=O)[C@H](Cc2ccccc2)NC(=O)[C@H](CC(C)C)N(C)C(=O)[C@H](C(C)C)NC(=O)[C@H](CC(C)C)NC(=O)CCCCCc2ccc(cc2)C[C@@H](C(=O)N2CCCCC2)NC(=O)[C@H]([C@@H](C)O)NC(=O)[C@H](CC(C)C)NC(=O)[C@H](C)N(C)C1=O [DP-892] (LV[NMeL]F[NMeF]I[NMeA]LT[Phe(4-(CH2)5CO)]-Piperidide; lactam N-10) | 57 |  |
| C=CC[C@@H]1NC(=O)[C@H](Cc2ccccc2)N(C)C(=O)[C@H]([C@@H](C)O)NC(=O)[C@H](CC(C)C)N(C)C(=O)[C@H](Cc2ccccc2)NC(=O)[C@H](C)NC(=O)C[C@@H](C(=O)N(C)[C@@H](Cc2ccccc2)C(=O)N[C@@H](C)C(=O)N2CCCCC2)NC(=O)[C@H](CC(C)C)NC(=O)[C@H](CC(C)C)N(C)C(=O)[C@H](C)N(C)C1=O [DP-612] (AF[NMeL]T[NMeF][AllylGly][NMeA][NMeL]LD[NMeF]A-Piperidide; lactam N-10) | 155 |  |
